# Calls of active or inactive are those of the source. The rule behind the calls is not given here.
# How the values were obtained:
# HT-29 [1] = experiment: Growth inhibition of human HT-29 cells expressing B-Raf V600E mutant by MTT assay; assay type: functional, cell-based
# LOX = experiment: Induction of apoptosis in human LOX cells; assay type: functional, cell-based
# HT-29 [2] = experiment: Antitumor activity against human HT-29 cells expressing B-Raf V600E mutant xenografted in nude mouse assessed as tumor growth inhibition at 50 mg/kg, po bid; assay type: functional; conditions: read-out: GI
# MIA PaCa-2 = experiment: Antitumor activity against human MIAPaCa2 cells expressing K-Ras G12C mutant xenografted in nude mouse assessed as tumor growth inhibition at 25 mg/kg, po bid; assay type: functional; conditions: read-out: GI
# Mus musculus [3] = experiment: Toxicity in human HT-29 cells expressing B-Raf V600E mutant xenografted nude mouse assessed as gross signs of adverse effect at 25 to 100 mg/kg, po bid for 3 weeks; assay type: organism-based; design: dose 25-100 mg/kg, route oral; conditions: in vivo, 504 h
# Mus musculus [4] = experiment: Toxicity in human MIAPaCa2 cells expressing K-Ras G12C mutant xenografted nude mouse assessed as gross signs of adverse effect at 25 to 200 mg/kg, po bid for 3 weeks; assay type: organism-based, MIA PaCa-2; design: dose 25-200 mg/kg, route oral; conditions: in vivo, 504 h
# Mus musculus [5] = experiment: Toxicity in human H460 cells expressing K-Ras Q61H mutant xenografted nude mouse assessed as gross signs of adverse effect at 500 mg/kg, po administered weekly once for 3 weeks; assay type: organism-based; design: dose 500 mg/kg, route oral; conditions: in vivo, 504 h
# HT-29 [6] = experiment: Reversible growth inhibition of human HT-29 cells expressing B-Raf V600E mutant measured up to 3 days by MTT assay; assay type: functional, cell-based
# [7] = Plasma concentration in human LOX cells expressing B-Raf V600E mutant xenografted nude mouse at 100 mg/kg, po after 4 hrs; assay type: ADME, organism-based; design: dose 100 mg/kg, route oral
# [8] = Drug level in human LOX cells expressing B-Raf V600E mutant xenografted nude mouse tumor at 100 mg/kg, po after 1 hr; assay type: ADME, organism-based, Neoplasm; design: dose 100 mg/kg, route oral; conditions: read-out: Drug uptake
# [9] = Drug level in human LOX cells expressing B-Raf V600E mutant xenografted nude mouse tumor at 100 mg/kg, po after 8 hrs; assay type: ADME, organism-based, Neoplasm; design: dose 100 mg/kg, route oral; conditions: read-out: Drug uptake
# Mus musculus [10] = experiment: Inhibition of MEK-mediated ERK phosphorylation in tumor of human HT-29 cells expressing B-Raf V600E mutant xenografted nude mouse at 50 mg/kg, po after 4 hrs by Western blot analysis relative to control; assay type: functional; conditions: HT-29, 4 h
# [11] = Plasma concentration in human HT-29 cells expressing B-Raf V600E mutant xenografted nude mouse at 50 mg/kg, po after 8 hrs; assay type: ADME, organism-based; design: dose 50 mg/kg, route oral
# [12] = Plasma concentration in human HT-29 cells expressing B-Raf V600E mutant xenografted nude mouse at 50 mg/kg, po after 12 hrs; assay type: ADME, organism-based; design: dose 50 mg/kg, route oral
# [13] = Drug level in human HT-29 cells expressing B-Raf V600E mutant xenografted nude mouse tumor at 50 mg/kg, po after 12 hrs; assay type: ADME, organism-based, Neoplasm; design: dose 50 mg/kg, route oral; conditions: read-out: Drug uptake
# [14] = Plasma concentration in human HT-29 cells expressing B-Raf V600E mutant xenografted nude mouse at 100 mg/kg, po after 8 hrs; assay type: ADME, organism-based; design: dose 100 mg/kg, route oral
# [15] = Drug level in human HT-29 cells expressing B-Raf V600E mutant xenografted nude mouse tumor at 100 mg/kg, po after 4 hrs; assay type: ADME, organism-based, Neoplasm; design: dose 100 mg/kg, route oral; conditions: read-out: Drug uptake
# [16] = Cmax in human LOX cells expressing B-Raf V600E mutant xenografted nude mouse at 6.25 mg/kg, po bid; assay type: ADME, organism-based; design: dose 6.25 mg/kg, route oral; conditions: in vivo
# Mus musculus [17] = experiment: Average drug concentration in human LOX cells expressing B-Raf V600E mutant xenografted nude mouse plasma at 6.25 mg/kg, po bid; assay type: ADME, organism-based; design: dose 6.25 mg/kg, route oral; conditions: in vivo
# [18] = Cmax in human LOX cells expressing B-Raf V600E mutant xenografted nude mouse at 12.5 mg/kg, po bid; assay type: ADME, organism-based; design: dose 12.5 mg/kg, route oral; conditions: in vivo
# Mus musculus [19] = experiment: Average drug concentration in human LOX cells expressing B-Raf V600E mutant xenografted nude mouse plasma at 12.5 mg/kg, po bid; assay type: ADME, organism-based; design: dose 12.5 mg/kg, route oral; conditions: in vivo
# Mus musculus [20] = experiment: Average drug concentration in human LOX cells expressing B-Raf V600E mutant xenografted nude mouse plasma at 25 mg/kg, po bid; assay type: ADME, organism-based; design: dose 25 mg/kg, route oral; conditions: in vivo
# [21] = AUC (0 to 12 hrs) in human HT-29 cells expressing B-Raf V600E mutant xenografted nude mouse at 25 mg/kg, po bid; assay type: ADME, organism-based; design: time < 12 hr, dose 25 mg/kg, route oral; conditions: in vivo
# [22] = AUC (0 to 12 hrs) in human HT-29 cells expressing B-Raf V600E mutant xenografted nude mouse at 50 mg/kg, po bid; assay type: ADME, organism-based; design: time < 12 hr, dose 50 mg/kg, route oral; conditions: in vivo
# Mus musculus [23] = experiment: Average drug concentration in human HT-29 cells expressing B-Raf V600E mutant xenografted nude mouse plasma at 50 mg/kg, po bid; assay type: ADME, organism-based; design: dose 50 mg/kg, route oral; conditions: in vivo
# Mus musculus [24] = experiment: Average drug concentration in human H460 cells expressing K-Ras Q61H mutant xenografted nude mouse plasma at 25 mg/kg, po bid; assay type: ADME, organism-based; design: dose 25 mg/kg, route oral; conditions: in vivo
# [25] = AUC (0 to 12 hrs) in human H460 cells expressing K-Ras Q61H mutant xenografted nude mouse at 25 mg/kg, po bid; assay type: ADME, organism-based; design: time < 12 hr, dose 25 mg/kg, route oral; conditions: in vivo
# [26] = Cmax in human H460 cells expressing K-Ras Q61H mutant xenografted nude mouse at 25 mg/kg, po bid; assay type: ADME, organism-based; design: dose 25 mg/kg, route oral; conditions: in vivo
# [27] = Cmax in human H460 cells expressing K-Ras Q61H mutant xenografted nude mouse at 50 mg/kg, po bid; assay type: ADME, organism-based; design: dose 50 mg/kg, route oral; conditions: in vivo
# Mus musculus [28] = experiment: Average drug concentration in human H460 cells expressing K-Ras Q61H mutant xenografted nude mouse plasma at 50 mg/kg, po bid; assay type: ADME, organism-based; design: dose 50 mg/kg, route oral; conditions: in vivo
# [29] = AUC (0 to 12 hrs) in human H460 cells expressing K-Ras Q61H mutant xenografted nude mouse at 100 mg/kg, po bid; assay type: ADME, organism-based; design: time < 12 hr, dose 100 mg/kg, route oral; conditions: in vivo
# Mus musculus [30] = experiment: Average drug concentration in human H460 cells expressing K-Ras Q61H mutant xenografted nude mouse plasma at 100 mg/kg, po bid; assay type: ADME, organism-based; design: dose 100 mg/kg, route oral; conditions: in vivo
# Mus musculus [31] = experiment: Average drug concentration in human H460 cells expressing K-Ras Q61H mutant xenografted nude mouse plasma at 200 mg/kg, po qd; assay type: ADME, organism-based; design: dose 200 mg/kg, route oral; conditions: in vivo
# [32] = Cmax in human MIAPaCa2 cells expressing K-Ras G12C mutant xenografted nude mouse at 25 mg/kg, po bid; assay type: ADME, organism-based, MIA PaCa-2; design: dose 25 mg/kg, route oral; conditions: in vivo
# Mus musculus [33] = experiment: Average drug concentration in human MIAPaCa2 cells expressing K-Ras G12C mutant xenografted nude mouse plasma at 50 mg/kg, po bid; assay type: ADME, organism-based, MIA PaCa-2; design: dose 50 mg/kg, route oral; conditions: in vivo
# [34] = AUC (0 to 24 hrs) in human MIAPaCa2 cells expressing K-Ras G12C mutant xenografted nude mouse at 200 mg/kg, po qd; assay type: ADME, organism-based, MIA PaCa-2; design: time < 24 hr, dose 200 mg/kg, route oral; conditions: in vivo
# [35] = molecular target: T1, Dual specificity mitogen-activated protein kinase kinase; MEK1/2 (Homo sapiens) (UniProt P36507+Q02750); conditions: HT-29, 2 to 10 uM
# Description: Inhibition of MEK1/2 phosphorylation in human HT-29 cells at 2 to 10 uM by Western blot analysis
# [36] = molecular target: T1, Dual specificity mitogen-activated protein kinase kinase; MEK1/2 (Homo sapiens); conditions: LOX, 2 to 10 uM
# Description: Inhibition of MEK1/2 phosphorylation in human LOX cells at 2 to 10 uM by Western blot analysis
# [37] = molecular target: T1, Dual specificity mitogen-activated protein kinase kinase; MEK1/2 (Homo sapiens); conditions: LOX, 2 to 10 uM; remark: listed apart in the source
# Description: Inhibition of MEK1/2 in human LOX cells assessed as down regulation of CDK4/cyclin D1 expression at 2 to 10 uM by Western blot analysis
# [38] = molecular target: T1, Dual specificity mitogen-activated protein kinase kinase; MEK1/2 (Homo sapiens); conditions: LOX, 2 to 10 uM; remark: listed apart in the source
# Description: Inhibition of MEK1/2 in human LOX cells assessed as upregulation of p27 expression at 2 to 10 uM by Western blot analysis
# T1 sequence (P36507 whole entry, looked up): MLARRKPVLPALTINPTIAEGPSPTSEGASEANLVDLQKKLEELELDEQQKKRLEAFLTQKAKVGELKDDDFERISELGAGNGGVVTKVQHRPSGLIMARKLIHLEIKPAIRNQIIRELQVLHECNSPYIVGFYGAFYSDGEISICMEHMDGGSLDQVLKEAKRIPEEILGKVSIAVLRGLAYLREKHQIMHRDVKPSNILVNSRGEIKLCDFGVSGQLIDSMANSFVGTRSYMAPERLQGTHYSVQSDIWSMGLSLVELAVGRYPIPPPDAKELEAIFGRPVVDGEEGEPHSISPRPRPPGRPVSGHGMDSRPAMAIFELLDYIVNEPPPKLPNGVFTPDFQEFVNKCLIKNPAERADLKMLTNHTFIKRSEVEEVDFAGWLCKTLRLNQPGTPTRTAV
# T1 sequence (Q02750 whole entry, looked up): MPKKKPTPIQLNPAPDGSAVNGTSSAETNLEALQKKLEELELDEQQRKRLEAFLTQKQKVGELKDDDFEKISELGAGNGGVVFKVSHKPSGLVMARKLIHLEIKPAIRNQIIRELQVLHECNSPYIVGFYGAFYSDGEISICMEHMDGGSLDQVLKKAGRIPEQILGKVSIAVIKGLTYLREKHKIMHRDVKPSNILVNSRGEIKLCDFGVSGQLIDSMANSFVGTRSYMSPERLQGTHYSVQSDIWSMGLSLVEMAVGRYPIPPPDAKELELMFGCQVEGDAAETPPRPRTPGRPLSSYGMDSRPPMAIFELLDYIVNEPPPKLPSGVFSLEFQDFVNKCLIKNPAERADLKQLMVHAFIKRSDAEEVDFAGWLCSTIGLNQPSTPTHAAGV
compound,measurement,setting,value
C[C@@H](c1ccccc1)[C@@H](C(=O)Nc1ccc(I)cc1F)N1C(=O)N[C@H](c2ccc(OC[C@H](O)CO)cc2)C1=O,IC50,HT-29 [1],110 nM
same,IC90,HT-29 [1],560 nM
same,growth inhibition (GI),HT-29 [1]; TDE = time-dependent effect,tde
same,Activity,LOX,Active
same,inhibition in vivo at 50 mg/kg,HT-29 [2],75%
same,inhibition in vivo at 25 mg/kg,MIA PaCa-2,71%
same,Activity,Mus musculus [3],Non-toxic
same,Activity,Mus musculus [4],Non-toxic
same,Activity,Mus musculus [5],Non-toxic
same,Activity,HT-29 [6],Active
same,concentration at 4 h,[7],4140 ng/mL
same,concentration at 1 h,[8],1030 ng/g
same,concentration at 8 h,[9],1160 ng/g
same,inhibition in vivo at 50 mg/kg,Mus musculus [10],81%
same,concentration at 8 h,[11],1260 ng/mL
same,concentration at 12 h,[12],61 ng/mL
same,concentration at 12 h,[13],188 ng/g
same,concentration at 8 h,[14],741 ng/mL
same,concentration at 4 h,[15],945 ng/g
same,Cmax,[16],750 ng/mL
same,Cave,Mus musculus [17],331 ng/mL
same,Cmax,[18],1170 ng/mL
same,Cave,Mus musculus [19],388 ng/mL
same,Cave,Mus musculus [20],833 ng/mL
same,AUC at 12 h,[21],3780 ng·h/mL
same,AUC at 12 h,[22],7310 ng·h/mL
same,Cave,Mus musculus [23],609 ng/mL
same,Cave,Mus musculus [24],733 ng/mL
same,AUC at 12 h,[25],8800 ng·h/mL
same,Cmax,[26],2750 ng/mL
same,Cmax,[27],8080 ng/mL
same,Cave,Mus musculus [28],1942 ng/mL
same,AUC at 12 h,[29],62900 ng·h/mL
same,Cave,Mus musculus [30],5242 ng/mL
same,Cave,Mus musculus [31],5083 ng/mL
same,Cmax,[32],3960 ng/mL
same,Cave,Mus musculus [33],1567 ng/mL
same,AUC at 24 h,[34],66200 ng·h/mL
same,inhibition,[35],Active
same,inhibition,[36],Active
same,inhibition,[37],Active
same,inhibition,[38],Active

# — ChEMBL document CHEMBL1955803, “Preclinical in vivo evaluation of efficacy, pharmacokinetics, and pharmacodynamics of a novel MEK1/2 kinase inhibitor RO5068760 in multiple tumor models” (Mol Cancer Ther, 2010)
